Assay results: patent US8148577B2, “Polyamines useful as anti-parasitic and anti-cancer therapeutics and as lysine-specific demethylase inhibitors” (The Johns Hopkins University, priority 2005, dated 2012)

Columns and labels:
A549 cells = assay: 96 hr MTS dose response experiments in A549 cells; assay type: cell-based; details: Homo sapiens, 96 hr exposure
Method: (§1) MTS dose response experiments in H157, H82, and A549 cells following a 96 hr exposure with select compounds were performed. MTS is a standard colorimetric assay used for measuring metabolic activity in cells. MTS experiments were performed by CellTiter 96® AQueuos One Solution Cell Proliferation Assay from Promega Corporation. Briefly, the cells were seeded at 3000 cells/well on a 96 well tissue culture plate containing 100 ul of medium/well and allowed to attach overnight. The medium was then aspirated and replaced with 100 ul of fresh medium containing the appropriate concentration of the compound being tested and incubated for 96 hrs at 37° C. and 5% CO2. Compounds are routinely tested at concentrations ranging from 0.1 micromolar to 50 micromolar. Wells not containing the test compound were present and used as a control. Following treatment, 20 ul of MTS reagent was added to each well and incubated at 37° C. for 1.5 hrs. The absorbance of each well was then measured at 490 nm and used to determine the metabolic activity of the cells in the presence of the test compound, relative to the control. IC50 values for the test compounds were extracted based on the results.
Note that the results for a 72 hr exposure in addition to the 96 hr exposure are shown for compound 49-TDW-29C in the H157 cells. […]

[1] = system: H157 (non-small cell lung carcinoma) cells; assay: 96 hr MTS dose response experiment in H157 cells; assay type: cell-based, human; details: a range means IC50 lies between the two tested concentrations
Method: as §1
(§2) Note that the results for a 72 hr exposure in addition to the 96 hr exposure are shown for compound 49-TDW-29C in the H157 cells. […] FIG. 1 depicts the results of a 96 hr MTS dose response experiments for compound 46-TDW-23c in H157, A549, H82 and Beas2B cells. FIG. 2 depicts the results of a 96 hr MTS dose response experiments for compound 49-TDW-9 in H157, A549, H82 and Beas2B cells. FIG. 3 depicts the results of a 96 hr MTS dose response experiments for compound 42-TDW-21c in H157, A549, H82 and Beas2B cells. FIG. 4 depicts the results of a 96 hr MTS dose response experiments for compound 46-TDW-19c in H157, A549, H82 and Beas2B cells. FIG. 5 depicts the results of a 96 hr MTS dose response experiments for compound 49-TDW-17c in H157, A549, H82 and Beas2B cells. FIG. 6 depicts the results of a 96 hr MTS dose response experiments for compound 40-TDW-37 in H157, A549, H82 and Beas2B cells. FIG. 7 depicts the results of a 96 hr MTS dose response experiments for compound 42-TDW-4 in H157, A549, H82 and Beas2B cells. FIG. 8 depicts the results of a 96 hr MTS dose response experiments for compound 49-TDW-29c in H157, A549, H82 and Beas2B cells. FIG. 9 depicts the results of a 96 hr MTS dose response experiments for compound 49-TDW-32c in H157, A549, H82 and Beas2B cells. FIG. 10 depicts the results of a 96 hr MTS dose response experiments for compound 46-TDW-35c in H157, A549, H82 and Beas2B cells. FIG. 11 depicts the results of a 96 hr MTS dose response experiments for compound 39-TDW-3 in H157, A549, and H82 cells. FIG. 12 depicts the results of a 96 hr MTS dose response experiments for compound 39-TDW-12c in […], and A549 cells. FIG. 13 depicts the results of a 96 hr MTS dose response experiments for compound 39-TDW-20c in H157, and H82 cells. FIG. 14 depicts the results of a 96 hr MTS dose response experiments for compounds 39-TDw-47c and 39-TDW-43 in H157 cells. FIG. 15 depicts the results of a 96 hr MTS dose response experiments for compounds 42-TDW-9, 42-TDW-4c/6, 40-TDW-35, 42-TDW-38 and BENSpm in H157 cells. FIG. 16 depicts the results of a 96 hr MTS dose response experiments for compounds 46-TDW-34c, 42-TDW-12, 40-TDW-48, 46-TDW-44c and BENSpm in H157 cells. FIG. 17 depicts the results of a 96 hr MTS dose response experiments for compounds 42-TDW-20c, 46-TDW-22, 46-TDW-39, 49-TDW-29c and BENSpm in H157 cells. FIG. 18 depicts the results of a 96 hr MTS dose response experiments for compounds 39-TDW-43, 42-TDW-48c, 46-TDW-9, 46-TDW-23c and BENSpm in H157 cells. FIG. 19 depicts the results of a 96 hr MTS dose response experiments for compounds 42-TDW-35c, 46-TDW-44 and BENSpm in H157 cells.

[2] = system: H82 (small lung cell carcinoma) cells; assay: 96 hr MTS dose response experiments in H82 cells; assay type: cell-based, human
Method: as §1, §2

H82 cells = assay: Polyamine levels in H82 cells following treatment; assay type: cell-based, human; details: 24 hr
Method: (§3) Putrescine, spermidine, and spermine polyamine levels in H157 and H82 cells following exposure to select compounds were performed. Polyamine levels were determined using the precolumn dansylation labeling, reverse-phase high-pressure liquid chromatography method as described by Kabra et al., J. Chromotography, 380:19 (1986). The results are show in Tables 6 and 11 for H157 and H82 cells respectively. The compound identifier, treatment concentration, observed polyamine level, and exposure time are listed in columns 1, 2, 3, and 4 respectively. Polyamine levels are reported as increased (inc), decrease (dec), or no change (N/C). In some case the specific levels of putrescine, spermidine, and/or spermine are listed.

[3] = system: H157 (non-small cell lung carcinoma) cells; assay: Polyamine levels in H157 cells following treatment; assay type: cell-based, human; details: 24 hr
Method: as §3

[4] = system: P19 embryonal carcinoma cells; details: P19 embryonal carcinoma cells treated; cited from earlier work
[5] = Homo sapiens, NCI-H157, 96 hr exposure
[6] = Homo sapiens, NCI-H82, 96 hr exposure
[7] = 10 uM, inc = increased, dec = decrease, N/C = no change

Row | IC50 [1, 5] [µM] | IC50 [2, 6] [µM] | Structure (SMILES) | Polyamine Level [3, 7] | also measured
1 | 1 to 10 | < 1 | CC1(C)C2CCC(CNCCCNCCCNCCCNCC3CCC4CC3C4(C)C)C1C2 (stereo not drawn) [ZQW-35] | – | Polyamine Level ([3]; 4 uM): N/C
2 | 1 to 10 | 1 to 10 | CC1(C)C2CCC(CNCCCNCCCNCCCN)C1C2 (stereo not drawn) [ZQW-35c] | – | –
3 | 1 to 10 | 1 to 10 | CCNCCCNCCCNCCCNCC1CCC2CC1C2(C)C (stereo not drawn) [ZQW-36] | slight dec | Polyamine Level, Spm ([3]; spermine (Spm), 10 uM): inc
4 | > 13 | – | C=C(CNCCCNCC)CNCCCNCC [ZQW-44] | N/C | Polyamine Level (H82 cells; 50 uM): inc
5 | 13 | – | C=C(CNCC)CNCCCNCCCNCC [ZQW-46] | N/C | Polyamine Level (H82 cells; 5-uM): dec

Further lines, the compound ahead of its results:

Row | Structure (SMILES) | IC50 [1, 5] [µM] | IC50 [2, 6] [µM] | Polyamine Level [3, 7] | also measured
6 | c1ccc(-c2ccccc2CNCCCNCCCNCCCNCc2ccccc2-c2ccccc2)cc1 [39-TDW-3] | 0.53 to 2.7 | 0.53 to 2.7 | – | IC50 (A549 cells): 1 to 10 µM
7 | CCNCCCNCCCNCCCNCc1ccccc1-c1ccccc1 [39-TDW-20c] | 2.76 to 5.52 | 2.76 to 5.52 | – | IC50 (A549 cells): > 10 µM
8 | CC(C)(C)CCNCCCNCCCNCCCNCC(F)(F)F [40-TDW-19] | 5.3 to 26.5 | 5 to 10 | – | –
9 | CCNCCCNCCCNCCCNCCCCc1cc2cccc3ccc4cccc1c4c32 [40-TDW-23] | – | – | – | IC50 ([1]; 96 hr exposure): 10 to 50 µM; IC50 ([2]; 96 hr exposure): 10 to 50 µM
10 | CCSCCNCCCNCCCNCCCNCCSCC [49-TDW-15] | – | – | – | IC50 ([1]; 96 hr exposure): 0.5 to 1 µM; IC50 ([2]; 96 hr exposure): 10 to 50 µM
11 | C=C(C)NCCCNCCCNCCCN [ZQW-35-7c] | > 10 | – | dec | Polyamine Level (H82 cells; 10 uM): N/C; Polyamine Level ([3]; 5 uM): slight dec
12 | C=C(C)NCCCNCCCNCCCNC(=C)C [ZQW-35-8] | > 10 | – | N/C | Polyamine Level (H82 cells; 10 uM): N/C, slight
13 | C=C(C)NCCCNCCCNCCCNCC [ZQW-35-8c] | 1 to 10 | – | dec | Polyamine Level (H82 cells; 10 uM): N/C, slight; Polyamine Level, spd, spm ([3]; spermidine and spermine, 10 uM): 1 g dec
14 | N[C@@H]1C[C@H]1c1ccccc1 [tranylcypromine, (1R,2S)-2-phenylcyclopropan-1-amine] | – | – | – | effect on transcription of Egr1 and Oct4 genes [4]: transcriptional de-repression of the Egr1 and Oct4 genes
